Measurements taken from ChEMBL document CHEMBL1201862, “PubChem BioAssay data set” (2004).
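Five concentrations, 48 hours, 96-well plates. GI50 marks 50% less growth.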 The source made the active and inactive calls. Cut-off read from the data, not from the text of the source: active = GI50 up to about 1.1 µM and inactive = higher.

What was measured:
Experiment in all cases: DTP human tumour cell line panel, 48 h
786-0 = test system: 786-0
A498 = test system: A498
A549 = test system: A549
ACHN = test system: ACHN
BT-549 = test system: BT-549
CAKI-1 = test system: CAKI-1
CCRF-CEM = test system: CCRF-CEM
COLO 205 = test system: COLO 205
DLD-1 = test system: DLD-1
DMS-273 = test system: DMS-273
DU-145 = test system: DU-145
EKVX = test system: EKVX
HCC 2998 = test system: HCC 2998
HCT-116 = test system: HCT-116
HCT-15 = test system: HCT-15
HL-60 = test system: HL-60
HOP-18 = test system: HOP-18
HOP-62 = test system: HOP-62
HOP-92 = test system: HOP-92
HT-29 = test system: HT-29
Hs-578T = test system: Hs-578T
IGROV-1 = test system: IGROV-1
K562 = test system: K562
KM-20L2 = test system: KM-20L2
KM12 = test system: KM12
LOX IMVI = test system: LOX IMVI
M14 = test system: M14
M19-MEL = test system: M19-MEL
MCF7 = test system: MCF7
MDA-MB-231 = test system: MDA-MB-231
MDA-MB-435 = test system: MDA-MB-435
MDA-N = test system: MDA-N
MOLT-4 = test system: MOLT-4
Malme-3M = test system: Malme-3M
NCI-H226 = test system: NCI-H226
NCI-H23 = test system: NCI-H23
NCI-H460 = test system: NCI-H460
NCI-H522 = test system: NCI-H522
NCI/ADR-RES = test system: NCI/ADR-RES
OVCAR-3 = test system: OVCAR-3
OVCAR-4 = test system: OVCAR-4
OVCAR-5 = test system: OVCAR-5
OVCAR-8 = test system: OVCAR-8
PC-3 = test system: PC-3
RPMI-8226 = test system: RPMI-8226
RXF 393 = test system: RXF 393
SF-268 = test system: SF-268
SF-295 = test system: SF-295
SF-539 = test system: SF-539
SK-MEL-28 = test system: SK-MEL-28
SK-MEL-2 = test system: SK-MEL-2
SK-MEL-5 = test system: SK-MEL-5
SK-OV-3 = test system: SK-OV-3
SN12C = test system: SN12C
SNB-19 = test system: SNB-19
SNB-75 = test system: SNB-75
SNB-78 = test system: SNB-78
SR = test system: SR
SW-620 = test system: SW-620
T47D = test system: T47D
TK-10 = test system: TK-10
U-251 = test system: U-251
UACC-257 = test system: UACC-257
UACC-62 = test system: UACC-62
UO-31 = test system: UO-31
XF498 = test system: XF498

With `Cc1ccc([S+](c2ccccc2)c2cc(C)ccc2C)cc1.O=C(OC(C(=O)[O-])C(OC(=O)c1ccccc1)C(=O)O)c1ccccc1` (stereo unspecified) the GI50 (786-0) was 26.2 µM (inactive), the GI50 (A498) was 39.2 µM (inactive) and the GI50 (A549) was 8.87 µM (inactive). The GI50 (ACHN) was 22.9 µM (inactive), the GI50 (BT-549) was 3.37 µM (inactive) and the GI50 (CAKI-1) was 14.6 µM (inactive). For the same molecule, the GI50 (CCRF-CEM) was 12.8 µM (inactive), the GI50 (COLO 205) was 4.26 µM (inactive) and the GI50 (DLD-1) was 14.6 µM (inactive). For the same molecule, the GI50 (DMS-273) was 1.89 µM (inactive), the GI50 (DU-145) was 34.2 µM (inactive) and the GI50 (EKVX) was > 100 µM (inactive). For the same molecule, the GI50 (HCC 2998) was 7.46 µM (inactive), the GI50 (HCT-116) was 3.49 µM (inactive) and the GI50 (HCT-15) was greater than 100 µM. The GI50 (HL-60) was 3.13 µM (inactive), the GI50 (HOP-18) was 12.3 µM (inactive) and the GI50 (HOP-62) was 21.5 µM (inactive). The GI50 (HOP-92) was 13.5 µM (inactive), the GI50 (HT-29) was 7.69 µM (inactive) and the GI50 (Hs-578T) was 5.12 µM (inactive). For the same molecule, the GI50 (IGROV-1) was 10.7 µM (inactive), the GI50 (K562) was 2.53 µM (inactive) and the GI50 (KM-20L2) was 7.73 µM (inactive). The GI50 (KM12) was 3.91 µM (inactive), the GI50 (LOX IMVI) was 6.85 µM (inactive) and the GI50 (M14) was 18.9 µM (inactive). The GI50 (M19-MEL) was 5.41 µM (inactive), the GI50 (MCF7) was 4.88 µM (inactive) and the GI50 (MDA-MB-231) was 16.9 µM (inactive). For the same molecule, the GI50 (MDA-MB-435) was 5.3 µM (inactive), the GI50 (MDA-N) was 3.89 µM (inactive) and the GI50 (MOLT-4) was 26.5 µM (inactive). For the same molecule, the GI50 (Malme-3M) was 44.9 µM (inactive), the GI50 (NCI-H226) was 15.4 µM (inactive) and the GI50 (NCI-H23) was 3.82 µM (inactive). The GI50 (NCI-H460) was 10.7 µM (inactive), the GI50 (NCI-H522) was 3.55 µM (inactive) and the GI50 (NCI/ADR-RES) was > 100 µM (inactive). The GI50 (OVCAR-3) was 3.14 µM (inactive), the GI50 (OVCAR-4) was 46 µM (inactive) and the GI50 (OVCAR-5) was 23.2 µM (inactive). For the same molecule, the GI50 (OVCAR-8) was 6.7 µM (inactive), the GI50 (PC-3) was 2.83 µM (inactive) and the GI50 (RPMI-8226) was 2 µM (inactive). For the same molecule, the GI50 (RXF 393) was 34 µM (inactive), the GI50 (SF-268) was 22.1 µM (inactive) and the GI50 (SF-295) was 11.9 µM (inactive). For the same molecule, the GI50 (SF-539) was 29 µM (inactive), the GI50 (SK-MEL-28) was 17.6 µM (inactive) and the GI50 (SK-MEL-2) was 3.51 µM (inactive). The GI50 (SK-MEL-5) was 3.85 µM (inactive), the GI50 (SK-OV-3) was 16.9 µM (inactive) and the GI50 (SN12C) was 17.7 µM (inactive). For the same molecule, the GI50 (SNB-19) was 4.83 µM (inactive), the GI50 (SNB-75) was 8.09 µM (inactive) and the GI50 (SNB-78) was 17.7 µM (inactive). For the same molecule, the GI50 (SR) was 1.85 µM (inactive), the GI50 (SW-620) was 7.89 µM (inactive) and the GI50 (T47D) was 6.98 µM (inactive). The GI50 (TK-10) was 18.2 µM (inactive), the GI50 (U-251) was 5.37 µM (inactive) and the GI50 (UACC-257) was 1.96 µM (inactive). For the same molecule, the GI50 (UACC-62) was 12.2 µM (inactive), the GI50 (UO-31) was 38 µM (inactive) and the GI50 (XF498) was 3.75 µM (inactive).
